Results: US11612586B2, “Indole regulation of antigen presenting cells” (THE TEXAS A&M UNIVERSITY SYSTEM, priority 2016, dated 2023)

Experiments:
IL-6 = IL-6 production in splenic CD11c+ DCs ex vivo; settings: indole overnight, LPS or heat-killed S. typhimurium
TGF-β = TGF-β production by BMDC cultures (ELISA); type: cell-based, mouse; settings: indole-conditioned DCs
Experimental: To determine whether this was a specific downregulation of pro-inflammatory cytokines, production of the canonical DC-produced anti-inflammatory cytokines, IL-10 and TGF-β, was also examined.
Cytokine concentration in the supernatant of BMDC cultures was assessed using commercially available ELISA kits for IL-10 (Peprotech) and TGF-β (eBioscience) per the manufacturer's instructions.

[1] = tested on: aldehyde dehydrogenase (ALDH); assay: Aldehyde dehydrogenase activity in BMDCs (Aldefluor); type: cell-based, mouse; settings: indole 1 mM from day 3, Aldefluor
Experimental: FIG. 13A: BMDCs were cultured from day 3 with indole (1 mM), retinoic acid (1 uM), or DMF control were assayed for aldehyde dehydrogenase (ALDH) activity using the Aldefluor commercial kit. The ALDH inhibitor, DEAB reagent, was included to control for background fluorescence. Aldefluor fluorescence as a measure of ALDH activity was analyzed by flow cytometry. Data is reported as percentage of Aldefluor positive DCs (left panel) and corresponding MFI values (right panel). Individual dots represent data from five independent experiments. FIG. 13B: Gene expression of aldh1a2 was assayed by real-time qPCR in day 7 BMDCs cultured with indole from day 3. Gene expression was normalized to 18 s ribosomal RNA. […]
One possible explanation for these observations is that indole promotes retinoic acid availability to the DCs, thus inducing gut homing markers indirectly by providing substrate for a previously identified mechanism. To investigate this possibility, aldehyde dehydrogenase (ALDH) activity was analyzed via flow cytometry using the fluorescent ALDH substrate, Aldefluor. […]
Activity of aldehyde dehydrogenase (ALDH) in individual BMDCs was measured using an Aldefluor staining kit (Stem Cell Technologies) according to the manufacturer's instructions with minor modifications. […] Subsequently, cells were stained with CD11c in cold Aldefluor assay buffer and then analyzed by flow cytometry.

Salmonella Typhimurium = assay: Salmonella invasion of and intracellular survival in J774.A1 macrophages; type: cell-based
Th1 cells = assay: Th1 differentiation in DC-T cell co-culture; type: cell-based, mouse
Experimental: FIGS. 19A-19C graphically illustrate that indole-conditioned DCs inhibit Th1, Th2, and Th17 differentiation. Naïve CD4+CD25-T cells from OT-II TCR transgenic mice were isolated by column purification. Naïve T cells were then co-cultured with OVA323-339 peptide-loaded BMDCs for 72 hours in the presence or absence of lineage-skewing cytokines (described in methods). BMDCs were previously treated with indole, RA, or DMF from day 3. For the last 5 hours of culture, T cells were restimulated with PMA and ionomycin in the presence of Golgiplug, followed by intracellular staining. Cytokine production was determined to assess differentiation of Th1 (FIG. 19A), Th2 (FIG. 19B), and Th17 CD4+T (FIG. 19C) cells. Mean of three independent experiments. * indicates p<0.05 for one-way ANOVA followed by Dunnett's post-test.
FIGS. 20A and 20B graphically illustrate that T cell skewing mediated by indole-conditioned DCs is AhR-independent. BMDCs were differentiated from WT or AhR-KO mice and conditioned with indole, RA, or DMF from day 3. DCs were then loaded with OVA323-339 and co-cultured with naïve CD4+CD25− T cells from OT-II transgenic mice for 72 hours. […] Subsequently, all cultures were stained and analyzed by flow cytometry for Foxp3 to identify Tregs or (B) IFNγ to identify Th1 cells. […]

**Q.** What does the source list for `c1ccc2[nH]ccc2c1` [Indole, indole]?
**A.** inhibition of IL-6 production (IL-6): ≥ 2 fold; TGF-β production (TGF-β): Neither IL-10 nor TGF-β production were affected; ALDH activity in DCs [1]: does not affect ALDH activity; intracellular survival of Salmonella in J774.A1 macrophages (Salmonella Typhimurium): not significantly affected; decrease of Salmonella invasion of J774.A1 macrophages (Salmonella Typhimurium; Salmonella exposed to indole): 2 fold; development of Th1 lineage (Th1 cells; co-culture with DCs conditioned with indole): stark inhibition; AhR dependence of inhibition of the Th1 lineage (Th1 cells; indole-conditioned BMDCs from wild-type or AhR-deficient mice): AhR-independent
